In ChEMBL document CHEMBL1201862, “PubChem BioAssay data set” (2004):
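Grown in 96-well plates, cells were treated for 48 hours with each compound at five concentrations. Insufficient inhibition: endpoint recorded as highest concentration tested. GI50 = concentration required for 50% inhibition of growth.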 The source made the active and inactive calls. Cut-off read from the data, not from the text of the source: active = GI50 up to about 1.1 µM and inactive = higher.

Tests used:
Assay in all cases: NCI-60 cell line screen, 48 h
K562 = tested on: K562
T47D = tested on: T47D
U-251 = tested on: U-251
SF-295 = tested on: SF-295
A498 = tested on: A498
SK-OV-3 = tested on: SK-OV-3
LOX IMVI = tested on: LOX IMVI
SN12C = tested on: SN12C
HCT-15 = tested on: HCT-15
MCF7 = tested on: MCF7
SF-539 = tested on: SF-539
786-0 = tested on: 786-0
SW-620 = tested on: SW-620
NCI/ADR-RES = tested on: NCI/ADR-RES
RXF 393 = tested on: RXF 393
HL-60 = tested on: HL-60
MDA-MB-231 = tested on: MDA-MB-231
Hs-578T = tested on: Hs-578T

| SMILES | GI50 (K562) | GI50 (T47D) | GI50 (U-251) | GI50 (SF-295) | GI50 (A498) | GI50 (SK-OV-3) | GI50 (LOX IMVI) | GI50 (SN12C) | GI50 (HCT-15) [µM] | GI50 (MCF7) | GI50 (SF-539) | GI50 (786-0) | GI50 (SW-620) | GI50 (NCI/ADR-RES) | GI50 (RXF 393) | GI50 (HL-60) | GI50 (MDA-MB-231) | GI50 (Hs-578T) |
| --- | --- | --- | --- | --- | --- | --- | --- | --- | --- | --- | --- | --- | --- | --- | --- | --- | --- | --- |
| O=C(c1ccc(Cl)cc1Cl)N(C(=O)N1CCC(c2ccccc2)CC1)c1ccccc1 | 34.4 µM (inactive) | 53.7 µM (inactive) | > 100 µM (inactive) | > 100 µM (inactive) | 97.7 µM (inactive) | > 100 µM (inactive) | > 100 µM (inactive) | > 100 µM (inactive) | > 100 | 72.4 µM (inactive) | > 100 µM (inactive) | > 100 µM (inactive) | > 100 µM (inactive) | > 100 µM (inactive) |  |  |  |  |
| COC(=O)CCC12CCC(O1)c1ccccc12 (configuration not stated) | > 100 µM (inactive) | > 100 µM (inactive) | > 100 µM (inactive) | > 100 µM (inactive) | > 100 µM (inactive) | > 100 µM (inactive) | > 100 µM (inactive) | > 100 µM (inactive) | > 100 | > 100 µM (inactive) | > 100 µM (inactive) | > 100 µM (inactive) | > 100 µM (inactive) | > 100 µM (inactive) | > 100 µM (inactive) | > 100 µM (inactive) | > 100 µM (inactive) |  |
| CC(C)(C)C=C=C(C(C)(C)C)P(=O)(O)O | > 100 µM (inactive) | > 100 µM (inactive) | > 100 µM (inactive) | > 100 µM (inactive) | > 100 µM (inactive) | > 100 µM (inactive) | > 100 µM (inactive) | > 100 µM (inactive) | > 100 |  | > 100 µM (inactive) | > 100 µM (inactive) | > 100 µM (inactive) | > 100 µM (inactive) | > 100 µM (inactive) | > 100 µM (inactive) |  | > 100 µM (inactive) |
| Cc1cc(=O)n2nc(CN3CCCCC3)sc2n1 | > 100 µM (inactive) | > 100 µM (inactive) | > 100 µM (inactive) | > 100 µM (inactive) |  | > 100 µM (inactive) | > 100 µM (inactive) | > 100 µM (inactive) | > 100 | > 100 µM (inactive) | > 100 µM (inactive) | > 100 µM (inactive) | > 100 µM (inactive) | > 100 µM (inactive) | > 100 µM (inactive) | > 100 µM (inactive) | > 100 µM (inactive) | > 100 µM (inactive) |
| Cc1ccc(O)c(C2=NNC(c3cccc(Cl)c3)C2)c1 (configuration not stated) | 36.4 µM (inactive) | 41.4 µM (inactive) | 33.9 µM (inactive) | 66.4 µM (inactive) |  | 35.9 µM (inactive) | 31.6 µM (inactive) | 37.2 µM (inactive) | 8.09 | 23.2 µM (inactive) | 66.5 µM (inactive) | 72.8 µM (inactive) | 48 µM (inactive) | 34.5 µM (inactive) | 19.4 µM (inactive) | 41.7 µM (inactive) | 61.5 µM (inactive) | 30.5 µM (inactive) |
| Nc1nc(N)c(/N=N/c2ccc(C(=O)O)c(O)c2)c(N)n1 | < 0.01 µM (active) |  | > 100 µM (inactive) | > 100 µM (inactive) | > 100 µM (inactive) | > 100 µM (inactive) | > 100 µM (inactive) | > 100 µM (inactive) | > 100 | 61.4 µM (inactive) | > 100 µM (inactive) | > 100 µM (inactive) | > 100 µM (inactive) | > 100 µM (inactive) | > 100 µM (inactive) |  | > 100 µM (inactive) | > 100 µM (inactive) |
| CC1=C(C(=O)OC(C)C)C(c2ccccc2[N+](=O)[O-])C(C(=O)OC(CO[N+](=O)[O-])CO[N+](=O)[O-])=C(C)N1 (configuration not stated) | 2.81 µM (inactive) | 4.99 µM (inactive) | 2.99 µM (inactive) | 2.1 µM (inactive) |  | 3.15 µM (inactive) | 2.68 µM (inactive) | 3.8 µM (inactive) | 3.08 | 3.55 µM (inactive) | 3.18 µM (inactive) | 3.62 µM (inactive) | 4.03 µM (inactive) | 3.27 µM (inactive) | 2.7 µM (inactive) | 6.25 µM (inactive) | 5.68 µM (inactive) | 3.36 µM (inactive) |
| COc1cccc(C2c3cc4c(cc3OC(N3CCCC3)C2C)OCO4)c1 (configuration not stated) | 2.69 µM (inactive) | 5.16 µM (inactive) |  | 3.04 µM (inactive) |  |  | 5.71 µM (inactive) | 20.9 µM (inactive) | 4.68 | 5.85 µM (inactive) | 8.69 µM (inactive) | 9.62 µM (inactive) | 4.55 µM (inactive) | 4.53 µM (inactive) |  |  |  | 8.3 µM (inactive) |
| COc1ccc(/C=C2\N=C(N3CCCCC3)NC2=O)cc1 |  | 34.5 µM (inactive) | > 100 µM (inactive) | > 100 µM (inactive) |  | > 100 µM (inactive) | 95.1 µM (inactive) | > 100 µM (inactive) | > 100 | > 100 µM (inactive) | 54 µM (inactive) | > 100 µM (inactive) | 96.8 µM (inactive) | > 100 µM (inactive) | 64 µM (inactive) | > 100 µM (inactive) | > 100 µM (inactive) | > 100 µM (inactive) |
